Results as given in patent publication US9579314B2 (priority 2015, dated 2017).

Columns and labels:
Human β2 adrenoceptor = Human β2 adrenoceptor (Homo sapiens, UniProt P07550); conditions: read-out: B2 binding affinity
Human M3 receptor = Human M3 receptor (Homo sapiens, UniProt P20309); conditions: read-out: M3 binding affinity
Chain of Human M3 receptor (P20309 whole entry): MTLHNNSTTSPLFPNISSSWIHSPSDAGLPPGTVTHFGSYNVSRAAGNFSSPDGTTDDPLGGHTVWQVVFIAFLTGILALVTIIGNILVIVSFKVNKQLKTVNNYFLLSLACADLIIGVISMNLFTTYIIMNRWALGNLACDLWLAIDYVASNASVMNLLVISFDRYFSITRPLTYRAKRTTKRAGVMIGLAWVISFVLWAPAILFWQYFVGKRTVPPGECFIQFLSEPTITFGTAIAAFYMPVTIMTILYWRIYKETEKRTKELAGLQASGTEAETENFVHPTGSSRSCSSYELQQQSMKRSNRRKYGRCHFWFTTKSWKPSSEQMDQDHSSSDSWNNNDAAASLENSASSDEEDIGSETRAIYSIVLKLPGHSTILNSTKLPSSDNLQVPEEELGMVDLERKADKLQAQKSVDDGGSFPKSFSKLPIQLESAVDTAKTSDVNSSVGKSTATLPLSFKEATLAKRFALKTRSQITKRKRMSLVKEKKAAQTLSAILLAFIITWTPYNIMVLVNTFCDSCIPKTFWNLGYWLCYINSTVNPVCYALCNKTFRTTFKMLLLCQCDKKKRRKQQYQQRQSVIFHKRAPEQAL

Chain of Human β2 adrenoceptor (P07550 whole entry): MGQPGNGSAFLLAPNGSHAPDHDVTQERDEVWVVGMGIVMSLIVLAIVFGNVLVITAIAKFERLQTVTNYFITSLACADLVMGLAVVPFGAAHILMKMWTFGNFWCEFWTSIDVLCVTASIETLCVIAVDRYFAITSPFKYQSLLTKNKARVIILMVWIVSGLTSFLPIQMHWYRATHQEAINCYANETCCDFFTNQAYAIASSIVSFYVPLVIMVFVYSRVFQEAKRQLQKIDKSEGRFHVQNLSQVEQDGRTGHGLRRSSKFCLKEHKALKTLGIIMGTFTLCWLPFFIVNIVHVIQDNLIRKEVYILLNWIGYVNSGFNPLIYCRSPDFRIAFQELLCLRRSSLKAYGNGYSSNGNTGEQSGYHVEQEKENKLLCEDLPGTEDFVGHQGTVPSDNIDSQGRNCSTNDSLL

Row | SMILES | IC50 (Human β2 adrenoceptor) [nM] | IC50 (Human M3 receptor) [nM]
1 | O=C(c1ccc(CNC[C@H](O)c2ccc(O)c3[nH]c(=O)ccc23)cc1)N1C[C@@H]2CCN(C(=O)COc3cccc([C@](O)(C(=O)OCC4CCN(Cc5ccccc5)CC4)c4ccccc4)c3)[C@@H]2C1 [Compound 77, (1-benzylpiperidin-4-yl)methyl (S)-2-hydroxy-2-(3-(2-((3aS,6aS)-5-(4-((((R)-2-hydroxy-2-(8-hydroxy-2-oxo-1,2-dihydroquinolin-5-yl)ethyl)amino)methyl)benzoyl)hexahydropyrrolo[3,4-b]pyrrol-1(2H)-yl)-2-oxoethoxy)phenyl)-2-phenylacetate] | 0.3 to 3 | 0.3 to 3
2 | COc1cc(C(=O)N2CC(NC(=O)COc3cccc([C@](O)(C(=O)OCC4CCN(Cc5ccccc5)CC4)c4ccccc4)c3)C2)ccc1CNC[C@H](O)c1ccc(O)c2[nH]c(=O)ccc12 [Compound 78, (1-benzylpiperidin-4-yl)methyl (S)-2-hydroxy-2-(3-(2-((1-(4-((((R)-2-hydroxy-2-(8-hydroxy-2-oxo-1,2-dihydroquinolin-5-yl)ethyl)amino)methyl)-3-methoxybenzoyl)azetidin-3-yl)amino)-2-oxoethoxy)phenyl)-2-phenylacetate] | < 0.3 | < 0.3
3 | COc1cc(C(=O)N2CCC3(CCN(C(=O)COc4cccc([C@](O)(C(=O)OCC5CCN(Cc6ccccc6)CC5)c5ccccc5)c4)CC3)CC2)ccc1CNC[C@H](O)c1ccc(O)c2[nH]c(=O)ccc12 [Compound 79, (1-benzylpiperidin-4-yl)methyl (S)-2-hydroxy-2-(3-(2-(9-(4-((((R)-2-hydroxy-2-(8-hydroxy-2-oxo-1,2-dihydroquinolin-5-yl)ethyl)amino)methyl)-3-methoxybenzoyl)-3,9-diazaspiro[5.5]undecan-3-yl)-2-oxoethoxy)phenyl)-2-phenylacetate] | < 0.3 | < 0.3
4 | COc1cc(C(=O)NCC2CCN(C(=O)COc3cccc([C@](O)(C(=O)OCC4CCN(Cc5ccccc5)CC4)c4ccccc4)c3)CC2)ccc1CNC[C@H](O)c1ccc(O)c2[nH]c(=O)ccc12 [Compound 80, (1-benzylpiperidin-4-yl)methyl (S)-2-hydroxy-2-(3-(2-(4-((4-((((R)-2-hydroxy-2-(8-hydroxy-2-oxo-1,2-dihydroquinolin-5-yl)ethyl)amino)methyl)-3-methoxybenzamido)methyl)piperidin-1-yl)-2-oxoethoxy)phenyl)-2-phenylacetate] | < 0.3 | 0.3 to 3
5 | COc1cc(CNC[C@H](O)c2ccc(O)c3[nH]c(=O)ccc23)ccc1C(=O)N1CCC2(CCN(C(=O)COc3cccc([C@](O)(C(=O)OCC4CCN(Cc5ccccc5)CC4)c4ccccc4)c3)CC2)CC1 [Compound 81, (1-benzylpiperidin-4-yl)methyl (S)-2-hydroxy-2-(3-(2-(9-(4-((((R)-2-hydroxy-2-(8-hydroxy-2-oxo-1,2-dihydroquinolin-5-yl)ethyl)amino)methyl)-2-methoxybenzoyl)-3,9-diazaspiro[5.5]undecan-3-yl)-2-oxoethoxy)phenyl)-2-phenylacetate] | 0.3 to 3 | 0.3 to 3
6 | COc1cc(CNC[C@H](O)c2ccc(O)c3[nH]c(=O)ccc23)ccc1C(=O)N1CC(NC(=O)COc2cccc([C@](O)(C(=O)OCC3CCN(Cc4ccccc4)CC3)c3ccccc3)c2)C1 [Compound 82, (1-benzylpiperidin-4-yl)methyl (S)-2-hydroxy-2-(3-(2-((1-(4-((((R)-2-hydroxy-2-(8-hydroxy-2-oxo-1,2-dihydroquinolin-5-yl)ethyl)amino)methyl)-2-methoxybenzoyl)azetidin-3-yl)amino)-2-oxoethoxy)phenyl)-2-phenylacetate] | 0.3 to 3 | 0.3 to 3
7 | CN(CCNC(=O)c1ccc(CCNC[C@H](O)c2ccc(O)c3[nH]c(=O)ccc23)cc1)C(=O)COc1cccc([C@](O)(C(=O)OCC2CCN(Cc3ccccc3)CC2)c2ccccc2)c1 [Compound 84, (1-benzylpiperidin-4-yl)methyl (S)-2-hydroxy-2-(3-(2-((2-(4-(2-(((R)-2-hydroxy-2-(8-hydroxy-2-oxo-1,2-dihydroquinolin-5-yl)ethyl)amino)ethyl)benzamido)ethyl)(methyl)amino)-2-oxoethoxy)phenyl)-2-phenylacetate] | 0.3 to 3 | > 3
8 | O=C(COc1cccc([C@](O)(C(=O)OCC2CCN(Cc3ccccc3)CC2)c2ccccc2)c1)NCCCNC(=O)c1ccc(CCNC[C@H](O)c2ccc(O)c3[nH]c(=O)ccc23)cc1 [Compound 85, (1-benzylpiperidin-4-yl)methyl (S)-2-hydroxy-2-(3-(2-((3-(4-(2-(((R)-2-hydroxy-2-(8-hydroxy-2-oxo-1,2-dihydroquinolin-5-yl)ethyl)amino)ethyl)benzamido)propyl)amino)-2-oxoethoxy)phenyl)-2-phenylacetate] | < 0.3 | 0.3 to 3
9 | O=C(COc1cccc([C@](O)(C(=O)OCC2CCN(Cc3ccccc3)CC2)c2ccccc2)c1)N1CCN(C(=O)c2ccc(CCNC[C@H](O)c3ccc(O)c4[nH]c(=O)ccc34)cc2)CC1 [Compound 86, (1-benzylpiperidin-4-yl)methyl (S)-2-hydroxy-2-(3-(2-(4-(4-(2-(((R)-2-hydroxy-2-(8-hydroxy-2-oxo-1,2-dihydroquinolin-5-yl)ethyl)amino)ethyl)benzoyl)piperazin-1-yl)-2-oxoethoxy)phenyl)-2-phenylacetate] | < 0.3 | 0.3 to 3
10 | O=C(NCCN(Cc1ccccc1)C(=O)COc1cccc([C@](O)(C(=O)OCC2CCN(Cc3ccccc3)CC2)c2ccccc2)c1)c1ccc(CCNC[C@H](O)c2ccc(O)c3[nH]c(=O)ccc23)cc1 [Compound 87, (1-benzylpiperidin-4-yl)methyl (S)-2-(3-(2-(benzyl(2-(4-(2-(((R)-2-hydroxy-2-(8-hydroxy-2-oxo-1,2-dihydroquinolin-5-yl)ethyl)amino)ethyl)benzamido)ethyl)amino)-2-oxoethoxy)phenyl)-2-hydroxy-2-phenylacetate] | 0.3 to 3 | 0.3 to 3
11 | O=C(COc1cccc([C@](O)(C(=O)OCC2CCN(Cc3ccccc3)CC2)c2ccccc2)c1)N[C@H]1C[C@H](NC(=O)c2ccc(CCNC[C@H](O)c3ccc(O)c4[nH]c(=O)ccc34)cc2)C1 [Compound 88, (1-benzylpiperidin-4-yl)methyl (S)-2-hydroxy-2-(3-(2-(((1R,3S)-3-(4-(2-(((R)-2-hydroxy-2-(8-hydroxy-2-oxo-1,2-dihydroquinolin-5-yl)ethyl)amino)ethyl)benzamido)cyclobutyl)amino)-2-oxoethoxy)phenyl)-2-phenylacetate] | 0.3 to 3 | < 0.3
12 | O=C(NCC1CCN(C(=O)COc2cccc([C@](O)(C(=O)OCC3CCN(Cc4ccccc4)CC3)c3ccccc3)c2)CC1)c1ccc(CCNC[C@H](O)c2ccc(O)c3[nH]c(=O)ccc23)cc1 [Compound 89, (1-benzylpiperidin-4-yl)methyl (S)-2-hydroxy-2-(3-(2-(4-((4-(2-(((R)-2-hydroxy-2-(8-hydroxy-2-oxo-1,2-dihydroquinolin-5-yl)ethyl)amino)ethyl)benzamido)methyl)piperidin-1-yl)-2-oxoethoxy)phenyl)-2-phenylacetate] | < 0.3 | 0.3 to 3
